Laboratory results taken from ChEMBL document CHEMBL1201862, “PubChem BioAssay data set” (2004).
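Each compound was tested at five concentrations against cells in 96-well plates for 48 hours. At the GI50, growth is halved.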 The source made the active and inactive calls. Cut-off read from the data, not from the text of the source: active = GI50 up to about 1.1 µM and inactive = higher.

What was measured:
Experiment in all cases: NCI anticancer screen, dose series, 48 h
SNB-78 = system: SNB-78
M19-MEL = system: M19-MEL
XF498 = system: XF498
DMS-114 = system: DMS-114
DMS-273 = system: DMS-273
KM-20L2 = system: KM-20L2
HOP-18 = system: HOP-18
LXFL 529 = system: LXFL 529
RXF 631 = system: RXF 631

Measured: GI50

COC(=O)CC[C@]12C[C@]13CC[C@]1(C)C4C(C)C[C@]5(CC(C)C(=O)O5)OC4CC1(C)C3CCC2C(C)(C)O (stereo partly drawn)
inactive: SNB-78 89.9 µM | M19-MEL 48 µM | XF498 58.6 µM | DMS-114 59.7 µM | DMS-273 32.7 µM | KM-20L2 > 100 µM | HOP-18 > 100 µM | LXFL 529 55.2 µM

C[C@]12CCC(=O)C[C@H]1CCC(O)[C@@H]2Br (stereo partly drawn)
inactive: M19-MEL > 100 µM | XF498 > 100 µM | DMS-114 > 100 µM | DMS-273 > 100 µM | KM-20L2 > 100 µM | RXF 631 > 100 µM | HOP-18 > 100 µM | LXFL 529 > 100 µM

COc1ccc(O)cc1C=O
inactive: SNB-78 > 100 µM | M19-MEL 77.1 µM | XF498 99.1 µM | DMS-114 32.8 µM | DMS-273 87.9 µM | KM-20L2 > 100 µM | RXF 631 > 100 µM | HOP-18 > 100 µM | LXFL 529 77.1 µM

CCOc1ccccc1/N=N/c1ccc2oc(=O)c(C(=O)Nc3cccc(C)c3)cc2c1
inactive: SNB-78 24.5 µM | M19-MEL 27 µM | XF498 34.6 µM | DMS-114 23.1 µM | DMS-273 34.3 µM | KM-20L2 43.5 µM | RXF 631 34.5 µM | LXFL 529 26.1 µM

CCCCCC/C=C1\CCC(CN2CCCC2)C1=O (stereo not drawn)
inactive: SNB-78 26 µM | M19-MEL 11.4 µM | XF498 17.4 µM | DMS-114 13.8 µM | DMS-273 12.7 µM | KM-20L2 20.5 µM | RXF 631 20.1 µM | HOP-18 18.7 µM | LXFL 529 3.85 µM

O=C(CCN1CCCCC1CCO)Nc1ccc2c(c1)C(=O)c1ccc(NC(=O)CCN3CCCCC3CCO)cc1C2=O (stereo not drawn)
inactive: SNB-78 3.2 µM | M19-MEL 26.4 µM | DMS-114 4.08 µM | DMS-273 2.83 µM | KM-20L2 20.1 µM | HOP-18 2.25 µM | LXFL 529 2.32 µM

COc1ccc(C2S/C(=C\c3cccc(O)c3)C(=O)N2NC(=O)Cc2ccccc2)cc1 (stereo not drawn)
inactive: M19-MEL > 100 µM | DMS-114 > 100 µM | DMS-273 > 100 µM | HOP-18 > 100 µM | LXFL 529 > 100 µM

C[C@@H]1C[C@]2(C[C@@H](C)C3[C@@H](CC4(C)[C@@H]5CCC6C(C)(C)OC(=O)C=C[C@]67C[C@@]5(CC[C@]34C)OO7)O2)OC1=O (stereo partly drawn)
inactive: SNB-78 52.5 µM | XF498 17.6 µM | DMS-114 > 100 µM | DMS-273 > 100 µM | HOP-18 > 100 µM | LXFL 529 31.6 µM

Cc1c(-c2nnc(-c3ccc(Cl)cc3)o2)c(=O)n(-c2ccccc2)n1C
inactive: SNB-78 > 100 µM | M19-MEL > 100 µM | XF498 > 100 µM | DMS-114 > 100 µM | DMS-273 > 100 µM | KM-20L2 > 100 µM | HOP-18 > 100 µM | LXFL 529 > 100 µM

Oc1c2c(nc3cc4c(cc13)OCO4)-c1ccccc1CC2
inactive: M19-MEL > 100 µM | XF498 > 100 µM | DMS-114 > 100 µM | DMS-273 > 100 µM | KM-20L2 > 100 µM | RXF 631 > 100 µM | LXFL 529 > 100 µM

CCC(C)CNC1=C(NC(C)=O)C(=O)c2ccccc2C1=O (stereo not drawn)
inactive: SNB-78 > 100 µM | M19-MEL 20.7 µM | XF498 > 100 µM | DMS-273 > 100 µM | KM-20L2 > 100 µM | LXFL 529 > 100 µM

Nc1nc(-c2ccco2)cc(-c2ccco2)n1
inactive: M19-MEL > 100 µM | XF498 > 100 µM | DMS-114 > 100 µM | DMS-273 5.14 µM | KM-20L2 > 100 µM | LXFL 529 > 100 µM

CN(C)c1ccc(/C=C(\C#N)C(=O)c2ccccc2)cc1Br
inactive: SNB-78 > 100 µM | XF498 > 100 µM | DMS-114 > 100 µM | DMS-273 > 100 µM | KM-20L2 > 100 µM | RXF 631 > 100 µM | HOP-18 > 100 µM | LXFL 529 > 100 µM

C/C=C(/CCC1NCCC2c3ccccc3NC12)[Si](C)(C)C (stereo not drawn)
inactive: SNB-78 11.6 µM | M19-MEL 12 µM | XF498 3.15 µM | DMS-114 4.53 µM | DMS-273 8.55 µM | KM-20L2 4.62 µM | RXF 631 10.4 µM | HOP-18 13.7 µM | LXFL 529 3.65 µM

N/N=C1\c2ccccc2C2/C(=N\N)c3ccccc3C12 (stereo not drawn)
inactive: M19-MEL > 100 µM | DMS-114 > 100 µM | DMS-273 > 100 µM | KM-20L2 > 100 µM | HOP-18 57.4 µM | LXFL 529 > 100 µM

COc1cc(Nc2cnc3ccc(N)cc3n2)cc(OC)c1OC
inactive: SNB-78 > 100 µM | M19-MEL > 84.1 µM | XF498 11 µM | DMS-114 79.3 µM | DMS-273 > 85.3 µM | KM-20L2 56.6 µM | RXF 631 > 100 µM | HOP-18 39.4 µM | LXFL 529 56.5 µM

Cn1ncnc1CCc1ccccc1
inactive: SNB-78 > 100 µM | M19-MEL > 100 µM | DMS-114 > 100 µM | DMS-273 > 100 µM | KM-20L2 > 100 µM | HOP-18 > 100 µM | LXFL 529 > 100 µM

CC(C)(C)c1ccccc1NS(=O)(=O)c1ccccc1
inactive: SNB-78 > 100 µM | M19-MEL > 100 µM | XF498 > 100 µM | DMS-114 49.9 µM | DMS-273 > 100 µM | KM-20L2 94 µM | RXF 631 > 100 µM | LXFL 529 > 100 µM

N=C(c1ccccc1)N1CCCCC1
inactive: SNB-78 > 100 µM | M19-MEL > 100 µM | DMS-114 > 100 µM | DMS-273 > 100 µM | KM-20L2 > 100 µM | HOP-18 > 100 µM | LXFL 529 > 100 µM

COC(=O)C(=O)C(C(=O)C=C(C)C)C(=O)C(=O)Nc1ccc(Cl)cc1C (stereo not drawn)
inactive: M19-MEL > 100 µM | DMS-114 92 µM | DMS-273 35.6 µM | KM-20L2 > 100 µM | RXF 631 > 100 µM | HOP-18 > 100 µM | LXFL 529 > 100 µM
